Data taken from ChEMBL document CHEMBL5674870, “Uropathogenic E. coli (UPEC) Infection Induces Proliferation through Enhancer of Zeste Homologue 2 (EZH2)” (PLoS One, 2016).
Calls of active or inactive are those of the source. No cut-off for these calls is given here.

How the values were obtained:
[1] = biological target: Histone-lysine N-methyltransferase EZH2 (Homo sapiens) (UniProt Q15910); assay: Inhibition of EZH2 in human HT-5637 cells assessed as decrease in uropathogenic Escherichia coli infection-induced host cell proliferation at 500 nM measured 24 to 72 hrs after infection by immunofluorescence analysis; type: cell-based; conditions: time 24-72 hrs
Sequence of Histone-lysine N-methyltransferase EZH2 (Homo sapiens) (Q15910 whole entry, looked up): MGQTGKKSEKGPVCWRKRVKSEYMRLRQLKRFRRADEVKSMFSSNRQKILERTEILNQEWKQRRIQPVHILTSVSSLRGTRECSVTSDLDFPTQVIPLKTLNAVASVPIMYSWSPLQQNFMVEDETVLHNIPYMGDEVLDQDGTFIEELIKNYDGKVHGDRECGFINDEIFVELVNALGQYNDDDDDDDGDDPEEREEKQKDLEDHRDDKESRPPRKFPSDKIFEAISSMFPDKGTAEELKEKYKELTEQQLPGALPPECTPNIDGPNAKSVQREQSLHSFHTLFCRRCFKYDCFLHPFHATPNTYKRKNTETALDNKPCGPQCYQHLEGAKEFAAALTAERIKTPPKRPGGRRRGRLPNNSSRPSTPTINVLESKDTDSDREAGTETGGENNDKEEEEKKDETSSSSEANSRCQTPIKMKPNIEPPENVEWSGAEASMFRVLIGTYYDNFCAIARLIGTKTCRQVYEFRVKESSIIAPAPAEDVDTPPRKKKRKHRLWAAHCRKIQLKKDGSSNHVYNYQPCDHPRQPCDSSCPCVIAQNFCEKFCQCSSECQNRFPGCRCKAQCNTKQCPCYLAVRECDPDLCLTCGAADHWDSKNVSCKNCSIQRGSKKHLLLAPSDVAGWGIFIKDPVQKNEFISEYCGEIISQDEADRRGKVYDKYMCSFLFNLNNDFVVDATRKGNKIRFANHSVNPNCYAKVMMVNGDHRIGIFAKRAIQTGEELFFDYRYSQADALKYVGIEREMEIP

[2] = biological target: Histone-lysine N-methyltransferase EZH2 (Homo sapiens) (UniProt Q15910); assay: Inhibition of EZH2 in human HT-5637 cells assessed as decrease in uropathogenic Escherichia coli infection-induced WNT3A mRNA level by qRT-PCR analysis; type: cell-based
[3] = Inhibition of KDM6A/6B in human HT-5637 cells assessed as increase in uropathogenic Escherichia coli infection-induced host cell proliferation at 100 nM measured 24 to 72 hrs after infection by immunofluorescence analysis; type: toxicity, cell-based; conditions: human, 5637, 0.1 µM, time 24-72 hrs
[4] = Inhibition of KDM6A/6B in human HT-5637 cells assessed as increase in uropathogenic Escherichia coli infection-induced WNT3A mRNA level by qRT-PCR analysis; type: toxicity, cell-based

inhibition [1]	inhibition [2]	SMILES	inhibition (INH) [3]	inhibition (INH) [4]
Active	Active	CCCc1cc(C)[nH]c(=O)c1CNC(=O)c1cc(-c2ccc(N3CCN(C(C)C)CC3)nc2)cc2c1cnn2C(C)C	–	–
–	–	CCOC(=O)CCNc1cc(N2CCc3ccccc3CC2)nc(-c2ccccn2)n1	Active	Active
